Series [1] has as its system A549 (human lung cancer) cell line. As to the kind of experiment: In vitro cytotoxic activity, MTT assay, A549 cell line. The note with it: for in vitro cytotoxicity compared with cisplatin and carboplatin, A549: A549 cell line, comparison of IC50 values in words; for IC50: read-out: IC50 Values against A549, MTT assay, A549 cells, 24 h incubation with compound, three independent experiments, ± standard deviation. The protocol: (§1) The trans-[Pt(NH3)2(thione)2].2NO3 complexes were evaluated for in vitro cytotoxic activity against A549 (human lung cancer), MCF-7 (human breast cancer) and HTC15 (human colon cancer) cell lines. The cells were seeded at 4×10^3 cells/well in 100 μL DMEM containing 10% FBS in 96-wells tissue culture plate and incubated for 72 h at 37° C., 5% CO2 in air and 90% relative humidity in CO2 incubator. After incubation, 100 μL of each sample solution (50, 25, 12.5 and 6.25 μM), prepared in DMEM, were added to cells and the cultures were incubated for 24 h. The medium of wells was discarded and 100 μL DMEM containing MTT (3-(4,5-Dimethylthiazol-2-yl)-2,5-diphenyltetrazolium Bromide) (5 mg/mL) was added to the wells and incubated in CO2 incubator at 37° C. in dark for 4 h. After incubation, purple colored formazan (artificial chromogenic dye, product of the reduction of water insoluble tetrazolium salts e.g., MMT by dehydrogenases and reductases) in the cells is produced and appeared as dark crystals in the bottom of the wells. The resultant crystals were solublized by adding 100 μL of DMSO in each well. The solution was thoroughly mixed to dissolve the formazan crystals, producing a purple solution. The absorbance of the 96-wells plate was taken at 570 nm with Labsystems Multiskan EX-Enzyme-linked immunosorbent assay (EX-ELISA) reader against a reagent blank. The IC50 values were calculated from three independent experiments by generating an equation of logarithmic trend line of percentage cell viability against concentration of compounds in Microsoft excel.
(§2) The MTT assay was performed in three independent experiments, each in triplicate. The cancer cell lines used are A549 (human lung cancer), MCF-7 (human breast cancer) and HTC15 (human colon cancer) cell lines. Errors are standard deviations determined from at least three independent experiments.
A general note: Formazan colour is commonly taken as a measure of viable cells.

The subject of series [2] is MCF-7 (human breast cancer) cell line. Briefly: In vitro cytotoxic activity, MTT assay, MCF-7 cell line. The note with it: for IC50: read-out: IC50 Values against MCF7, MTT assay, MCF7 cells, 24 h incubation with compound, three independent experiments, ± standard deviation; for cytotoxicity compared with cisplatin and carboplatin, MCF7: MCF7 cell line, comparison of IC50 values in words. The protocol:
as §1, with “After incubation, 100 μL of each sample solution (50, 25, 12.5 and 6.25 μM), prepared in DMEM, were added to cells and the cultures were incubated for 24 h.” left out
as §2

Series [3] relates to HCT15 (human colon cancer) cell line. As to the kind of experiment: In vitro cytotoxic activity, MTT assay, HCT15 cell line. Format: cell-based. The note with it: for activity compared with cisplatin and carboplatin, HCT15: HCT15 cell line, comparison of IC50 values in words; for IC50: MTT assay, HCT15 cells, 24 h incubation with compound, three independent experiments, ± standard deviation, read-out: IC50 Values against HCT15. How it is done: as §1, §2

Consider eleven molecules from patent US10172823B1, “Method for inhibiting cancer cell growth with a transplatin complex” (KING FAHD UNIVERSITY OF PETROLEUM AND MINERALS, priority 2017, dated 2019).

Entries after “also recorded” stand apart in the source; their conditions may differ.

As usually defined, the IC50 is the concentration needed to halve the response being measured. Turning to `CN1CCN(C)C1=S.CN1CCN(C)C1=S.N.N.O=[N+]([O-])[O-].O=[N+]([O-])[O-].[Pt+2]` [Complex 3, trans-[Pt(NH3)2(Me2Imt)2]. 2NO3], in series [1], the “in vitro cytotoxicity compared with cisplatin and carboplatin, A549” value is reported as “the same cytotoxicity as carboplatin”; the IC50 is 70 ± 1 µM. In series [2], the IC50 came out at 92 ± 2 µM. Besides, in series [3], the “activity compared with cisplatin and carboplatin, HCT15” value is reported as “less potent even than carboplatin”; the half-inhibitory concentration (IC50) stood at 69 ± 2 µM.

For `CC(C)N1CCN(C(C)C)C1=S.CC(C)N1CCN(C(C)C)C1=S.N.N.O=[N+]([O-])[O-].O=[N+]([O-])[O-].[Pt+2]` [Complex 7, trans-[Pt(NH3)2(Pr2Imt)2].2 NO3], in series [1], the “in vitro cytotoxicity compared with cisplatin and carboplatin, A549” value is recorded as “the same cytotoxicity as carboplatin”. Also, the IC50 in series [1] was determined as 69 ± 1 µM; in series [2], 87 ± 2 µM; in series [3], 53 ± 1 µM. The “activity compared with cisplatin and carboplatin, HCT15” value in series [3] is “almost the same cytotoxicity as carboplatin”.

Take `CCN1CCN(CC)C1=S.CCN1CCN(CC)C1=S.N.N.O=[N+]([O-])[O-].O=[N+]([O-])[O-].[Pt+2]` [Complex 4, trans-[Pt(NH3)2(Et2Imt)2]. 2NO3]: the 50% inhibitory concentration (IC50) in series [1] turned out to be 75 ± 1 µM; in series [2] it was 89 ± 1 µM; in series [3], 63 ± 1 µM. In addition, in series [3], the “activity compared with cisplatin and carboplatin, HCT15” value is recorded as “less potent even than carboplatin”.

Consider `CCN1CCCNC1=S.CCN1CCCNC1=S.N.N.O=[N+]([O-])[O-].O=[N+]([O-])[O-].[Pt+2]` [Complex 8, trans-[Pt(NH3)2(EtDiaz)2]. 2NO3], for which, in series [1], the “in vitro cytotoxicity compared with cisplatin and carboplatin, A549” value is “slightly lower than cisplatin but still higher than carboplatin”; the IC50 amounted to 48 ± 1 µM. In series [2], the “cytotoxicity compared with cisplatin and carboplatin, MCF7” value was “between cisplatin and carboplatin”; the concentration for half-maximal inhibition (IC50) is 60 ± 2 µM. For the same molecule, in series [3], the “activity compared with cisplatin and carboplatin, HCT15” value is listed as “comparable to cisplatin”; the IC50 worked out at 43 µM.

On to `N.N.O=[N+]([O-])[O-].O=[N+]([O-])[O-].S=C1NCCCCN1.S=C1NCCCCN1.[Pt+2]` [Complex 9, trans-[Pt(NH3)2(Diap)2]. 2NO3], for which, in series [1], the “in vitro cytotoxicity compared with cisplatin and carboplatin, A549” value is on record as “slightly lower than cisplatin but still higher than carboplatin”. In addition, the concentration for half-maximal inhibition (IC50) in series [1] is 49 ± 1 µM; in series [2], 69 ± 1 µM; in series [3], 41 µM. Also, the “activity compared with cisplatin and carboplatin, HCT15” value in series [3] was “comparable to cisplatin”.

On to `N.N.[Cl][Pt][Cl]` [Cisplatin, cisplatin, reference compound], for which the IC50 is 42 ± 2 µM in series [1], 23 ± 3 µM in series [2] and 32 ± 2 µM in series [3].

With `CC(C)N1CCNC1=S.CC(C)N1CCNC1=S.N.N.O=[N+]([O-])[O-].O=[N+]([O-])[O-].[Pt+2]` [Complex 6, trans-[Pt(NH3)2(iPrImt)2]. 2NO3], in series [1], the “in vitro cytotoxicity compared with cisplatin and carboplatin, A549” value is reported as “slightly lower than cisplatin but still higher than carboplatin”; the half-inhibitory concentration (IC50) came to 66 ± 1 µM. Moreover, the IC50 in series [2] came to 86 ± 2 µM. In series [3], the “activity compared with cisplatin and carboplatin, HCT15” value is listed as “less potent even than carboplatin”; the concentration for half-maximal inhibition (IC50) is 79 ± 1 µM.

For `N.N.O=[N+]([O-])[O-].O=[N+]([O-])[O-].S=C1NCCN1.S=C1NCCN1.[Pt+2]` [Complex 1, trans-[Pt(NH3)2(Imt)2]. 2NO3], in series [1], the “in vitro cytotoxicity compared with cisplatin and carboplatin, A549” value is “slightly lower than cisplatin but still higher than carboplatin”. Besides, the IC50 came to 52 ± 2 µM in series [1], 80 ± 1 µM in series [2] and 50 ± 1 µM in series [3]. For the same molecule, the “activity compared with cisplatin and carboplatin, HCT15” value in series [3] was “almost the same cytotoxicity as carboplatin”.

As for `CCCN1CCNC1=S.CCCN1CCNC1=S.N.N.O=[N+]([O-])[O-].O=[N+]([O-])[O-].[Pt+2]` [Complex 5, trans-[Pt(NH3)2(PrImt)2]. 2NO3], in series [1], the “in vitro cytotoxicity compared with cisplatin and carboplatin, A549” value was “almost two-fold better than that of carboplatin; also recorded: better cytotoxicity against A549 cancer cell line than cisplatin”; the IC50 is 41 µM. In series [2], the “cytotoxicity compared with cisplatin and carboplatin, MCF7” value is “between cisplatin and carboplatin”; the IC50 was 45 ± 1 µM. Besides, in series [3], the “activity compared with cisplatin and carboplatin, HCT15” value is “comparable to cisplatin”; the IC50 came to 36 µM.

`CN1CCNC1=S.CN1CCNC1=S.N.N.O=[N+]([O-])[O-].O=[N+]([O-])[O-].[Pt+2]` [Complex 2, trans-[Pt(NH3)2(MeImt)2]. 2NO3]: in series [1], the “in vitro cytotoxicity compared with cisplatin and carboplatin, A549” value was “almost two-fold better than that of carboplatin; also recorded: better cytotoxicity against A549 cancer cell line than cisplatin”; the IC50 came to 40 µM. Besides, the IC50 in series [2] is 70 ± 2 µM. In addition, in series [3], the “activity compared with cisplatin and carboplatin, HCT15” value was “comparable to cisplatin”; the IC50 amounted to 40 µM.

For the molecule `N.N.O=C([O-])C1(C(=O)[O-])CCC1.[Pt+2]` [Carboplatin, carboplatin, reference compound], the IC50 in series [1] was 70 ± 2 µM; in series [2], 63 ± 2 µM; in series [3], 53 ± 2 µM.
